Assay results from article PMC5058653, “A Fhit-mimetic peptide suppresses annexin A4-mediated chemoresistance to paclitaxel in lung cancer cells” (Oncotarget, 2016).
No end group written: not given here.

Columns and labels:
[1] = biological target: T1, Annexin A4 (Homo sapiens, UniProt P09525); assay: GST pull-down from A549 total lysates, immunoblot for Annexin 4; assay type: binding; conditions: GSH resin beads, 12 h at 4°C
T1 construct: endogenous in cells; host or cells: A549 total lysates
T1 sequence (P09525 1-319): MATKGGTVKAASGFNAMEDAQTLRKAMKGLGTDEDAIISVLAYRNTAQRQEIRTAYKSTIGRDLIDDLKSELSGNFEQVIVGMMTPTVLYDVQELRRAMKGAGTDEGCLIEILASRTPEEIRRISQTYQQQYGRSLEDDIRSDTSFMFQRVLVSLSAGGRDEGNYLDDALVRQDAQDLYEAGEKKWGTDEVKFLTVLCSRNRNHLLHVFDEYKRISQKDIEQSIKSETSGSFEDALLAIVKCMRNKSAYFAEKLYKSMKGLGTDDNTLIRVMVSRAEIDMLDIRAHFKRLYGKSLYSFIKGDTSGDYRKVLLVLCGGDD
Description: In order to map the region of Fhit protein binding Annexin A4, we cloned downstream GST three truncated FHIT cDNAs, namely TR1 (332 bp), TR2 (212 bp) and TR3 (113 bp), all containing the N-terminus common to the wild-type Fhit protein. TR1, TR2, and TR3 correspond to the 111, 71, and 38 N-terminal aminoacids of Fhit protein, respectively (Figure 1A). Annexin A4 binds wild-type Fhit/GST fusion protein as well as all shorter forms of Fhit fusion proteins, indicating its binding to the N-terminus of Fhit (Figure 1B). In our previous paper, we reported that Fhit/Annexin A4 interaction was only detectable in the presence of DSP [19]. DSP is a cross-linker containing an amine-reactive N-hydroxysuccinimide (NHS); NHS esters react with primary amine group located at lysine (Lys, K) residue sidechain. Since Lys residues are abundant and easily accessible on the hydrophilic surface of most proteins they usually crosslink with high efficiency.
Figure 1 Fhit peptide interacts with Annexin 4 A. GST-Fhit fusion protein and three deletion mutant proteins. Fhit was deleted from the C-terminal site. B. GST-FHIT plasmids were amplified in BL21 bacteria by stimulation with IPTG […] for 6 h at 30°C. Recombinant GST-Fhit fusion proteins were purified with GSH resin beads and added to A549 total lysates. 12 h after incubation at 4°C, GSH resin beads were washed and proteins eluted. […]

[2] = culture medium over adherent cells, 24 h after administration, read-out MALDI mass spectrometry
Description: We tested the stability of our peptides in the culture medium over adherent cells through Mass Spectroemtry-MALDI.

[3] = system: A549 cells; assay: A549 tumor xenograft in nude mice, tumor weight; assay type: in vivo, mouse; conditions: s.c. A549 xenograft, paclitaxel alone 40 mg/kg single i.v. dose, 48 h, n = 5 mice per group
Experimental: We further investigated the in vivo effects of Tat-Fhit 7-13 peptide with or without paclitaxel treatment in a preclinical model of lung cancer, using six groups of mice (n = 5 mice per group). Each group was subcutaneously injected with 1×10^7 A549 cells. When tumors reached the diameter of 15 mm, three groups were treated either with a single administration of 40 mg/kg paclitaxel, or 50 mg/kg Tat-Fhit 7-13 peptide, or both; mice were monitored on a regular basis. The remaining three groups, used as controls, were either left untreated or treated with Tat-Fhit 7-13 scrambled or treated with Tat-Fhit 7-13 scrambled plus paclitaxel; 48 h after treatments, mice were sacrificed and tumors were evaluated by weight.
Figure 3 Tat-Fhit 7-13 peptide in combination with paclitaxel blocks in vivo tumor formation A., C. Nude mice were subcutaneously injected with […] A549 cells. When tumors reached 15 mm diameter, mice were mock-treated, treated paclitaxel (single IV administration of 40 mg/kg), with scrambled Tat peptide (50 mg/kg) alone or in combination with paclitaxel, with Tat-Fhit 7-13 peptide (50 mg/Kg) alone or in combination with paclitaxel; paclitaxel and peptides were injected in a single administration and mice were monitored on a regular basis. Two days later, mice were sacrificed and tumors were evaluated by percent A. and by weight C.. […]

Molecule	stability in the culture medium [2]	other results
wild-type Fhit/GST fusion protein: recombinant full-length Fhit fused to GST, expressed in E. coli BL21	–	binding of Annexin A4 (GST pull-down) [1]: binds
YGRKKRRQRRRGQHLIKPS [Tat-Fhit 7-13 peptide]	still stable and undegraded	–
CC(=O)O[C@H]1C(=O)[C@@]2(C)[C@H]([C@H](OC(=O)c3ccccc3)[C@]3(O)C[C@H](OC(=O)[C@H](O)[C@@H](NC(=O)c4ccccc4)c4ccccc4)C(C)=C1C3(C)C)[C@]1(OC(C)=O)CO[C@@H]1C[C@@H]2O [paclitaxel]	–	tumor wt, % of controls [3]: 60%
YGRKKRRQRRRGLSKQPHI [Tat-Fhit 7-13 scrambled peptide]	still stable and undegraded	–
